Measurements taken from PMC8805119, “Spatial Distribution and Stability of Cholinesterase Inhibitory Protoberberine Alkaloids from Papaver setiferum” (Journal of Natural Products, 2021).
Read-outs that look alike come from different tables or passages of the source.

Experiments:
[1] = target: T1, electric eel acetylcholinesterase (eeAChE) (Electrophorus electricus, UniProt O42275); test: Cholinesterase inhibition assay (Ellman method), eeAChE; assay type: biochemical; conditions: for Ki: inhibition constant, Dixon plot, substrate 0.125, 0.25, 0.5 mM
T1 construct: purchased Sigma-Aldrich
Method: (§1) Cholinesterase activities were measured by the Ellman method[58] adapted for 96-well microtiter plates, as previously described.[59] The compounds were first screened for the IC50 determination, and for those with IC50 < 200 μM, the inhibitory constants (Ki) were determined. Stock solutions of the tested compounds (5 mg/mL) and of the positive control (1 mg/mL neostigmine bromide, Sigma-Aldrich, St. Louis, MO, USA) were prepared in 100% MeOH. These solutions were added to the wells and gradually diluted in 100 mM potassium phosphate buffer (pH 7.4) to the final volume of 50 μL. Acetylthiocholine chloride and 5,5′-dithiobis-2-nitrobenzoic acid were then dissolved in the same buffer to the respective final concentrations of 1 and 0.5 mM and added (100 μL) to the wells of the microtiter plates. eeAChE, hrAChE, or hsBChE (all Sigma-Aldrich) were dissolved in the same buffer to 0.0075 U/mL. A 50 μL amount of each of the cholinesterases was added to start the reactions, which were followed spectrophotometrically at 405 nm and 25 °C for 5 min using a kinetic microplate reader (Dynex Technologies Inc., Chantilly, VA, USA). Blank reactions without the inhibitors were run in the presence of the appropriate dilution of MeOH in 100 mM potassium phosphate buffer (pH 7.4). The concentrations of the compounds inducing 50% inhibition of enzyme activity (IC50) were determined and expressed as mean values ± SEM. To determine the inhibition constants (Ki), the kinetics were monitored using three different final substrate concentrations (0.125, 0.25, 0.5 mM). Each measurement was repeated at least three times. Data were analyzed using OriginPro software (OriginPro 2020, OriginLab Corporation, Northampton, MA, USA).

[2] = target: T2, human recombinant acetylcholinesterase (hrAChE) (Homo sapiens, UniProt P22303); test: Cholinesterase inhibition assay (Ellman method), hrAChE; assay type: biochemical; conditions: for Ki: inhibition constant, Dixon plot, substrate 0.125, 0.25, 0.5 mM
T2 construct: purchased Sigma-Aldrich
Method: as §1

[3] = target: T3, horse serum butyrylcholinesterase (hsBChE) (Equus caballus, UniProt P81908); test: biochemical; assay type: biochemical; conditions: for selectivity for BChE: hsBChE versus AChEs; for Ki: inhibition constant, Dixon plot, substrate 0.125, 0.25, 0.5 mM; for IC50: means ± SEM of three independent measurements
T3 construct: purchased Sigma-Aldrich; host or cells: horse serum
Method: as §1

[4] = Protoberberine oxidation analysis in P. setiferum capsules (oven 40 °C vs freezer -20 °C, LC-MS); assay type: physicochemical, Papaver setiferum; conditions: 2 weeks
Method: The alkaloid analysis was based on De Vos et al. (2007).[57]P. setiferum material was collected at four time points: (1) approximately 3 days before flowering, (2) during flowering, (3) approximately 2 weeks after flowering, and (4) approximately 4 weeks after flowering (by which point the flowers had dried and turned brown). At each collection time, a sample of the aerial parts (three separate stems, each with several leaves and a capsule) was collected and stored at −20 °C. The samples were later separated into capsules, leaves, and stems and ground into a powder using a mortar and pestle. One hundred milligrams (±5 mg) of each was transferred into an Eppendorf tube, and each weight was recorded. Cold MeOH (0.1% FA) was added to each in a 1:10 w/v ratio, and the tubes were sonicated for 30 min. The samples were centrifuged for 5 min at 13 000 rpm, and the supernatant was filtered (0.2 μm). A pooled sample was prepared by taking 20 μL from each sample and combining into a single vial. All samples were diluted 1:10 in Milli-Q water prior to LC-MS analysis. The samples were randomly ordered for LC-MS, with the pooled sample run interspaced after every fourth sample. An injection volume of 2 μL was used for each sample. The solvents used were 5% CH3CN (0.1% FA) (solvent A) and 95% CH3CN (0.1% FA) (solvent B). The column used was a Phenomenex Kinetex XB-C18 (2.6 μm, 100 Å, 3.0 × 100 mm) with a linear solvent gradient from 15% to 50% solvent B over 20 min. Alkaloids were identified by comparison of retention times with authentic standards.
From three P. setiferum capsules [taken from time point (1) in the time series analysis], two lots of 100 ± 5 mg of material were weighed into Eppendorf tubes. One set of samples was stored with the lids open in the oven at 40 °C, while the others were stored in the freezer at −20 °C. After 2 weeks, the samples were analyzed by LC-MS, as described above.

[5] = Storage stability of isolated compounds (oxidation); assay type: physicochemical
Method: These findings are of interest as they contrast with observations from the present work. In this study, no special precautions were taken in the isolation of 1 and 2, although the laboratory studies were conducted relatively quickly: only 9 days elapsed from the collection of fresh plants to the acquisition of NMR data (see Supporting Information, Figure S31 for a detailed isolation timeline). […] Comparison of the present methodology with the approaches used by Tsai and Lee[25] and Paulsen et al.[26] has led to the hypothesis that the use of a strong acid (0.1% TFA, pH ∼2.0) during HPLC may be an important component of compound stability. In the present investigation, 0.1% TFA was used in both solvents during HPLC purification, and the same was done by Tsai and Lee. Conversely, Paulsen et al. opted for a three-solvent system of 10 mM (NH4)2SO3, 0.2% triethylamine adjusted with acetic acid to pH 4.0 (solvent A), CH3CN (solvent B), and MeOH (solvent C). Their observation that 13,14-dihydrocoptisine oxidized repeatedly after HPLC leads to the present conclusion that these conditions may have been insufficiently acidic to stabilize the compound. However, this was not tested in the current work. Further, given the varied substitution of the aromatic motifs in these compounds, the role these groups play upon stability cannot be yet ascertained. […]

[6] = C. majus material; cited from earlier work
[7] = means ± SEM of three independent measurements, read-out: eeAChE IC50
[8] = means ± SEM of three independent measurements, read-out: hrAChE IC50
[9] = AChEs (eeAChE and hrAChE), compared to 2

T3 sequence (P81908 whole entry): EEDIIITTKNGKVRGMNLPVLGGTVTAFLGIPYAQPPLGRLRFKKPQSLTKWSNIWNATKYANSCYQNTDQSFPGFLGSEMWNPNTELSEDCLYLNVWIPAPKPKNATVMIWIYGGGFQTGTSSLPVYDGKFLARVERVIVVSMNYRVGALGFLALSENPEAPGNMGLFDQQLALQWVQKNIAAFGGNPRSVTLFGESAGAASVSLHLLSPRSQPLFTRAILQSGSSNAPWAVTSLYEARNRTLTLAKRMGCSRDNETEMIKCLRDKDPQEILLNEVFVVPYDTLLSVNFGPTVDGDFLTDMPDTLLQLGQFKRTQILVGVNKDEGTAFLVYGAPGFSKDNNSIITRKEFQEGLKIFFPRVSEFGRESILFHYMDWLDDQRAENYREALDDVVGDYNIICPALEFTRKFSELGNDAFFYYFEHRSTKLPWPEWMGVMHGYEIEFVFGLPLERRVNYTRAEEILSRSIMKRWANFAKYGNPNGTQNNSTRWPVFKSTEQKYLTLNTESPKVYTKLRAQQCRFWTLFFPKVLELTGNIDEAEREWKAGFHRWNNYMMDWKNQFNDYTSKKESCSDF
T1 sequence (O42275 24-633): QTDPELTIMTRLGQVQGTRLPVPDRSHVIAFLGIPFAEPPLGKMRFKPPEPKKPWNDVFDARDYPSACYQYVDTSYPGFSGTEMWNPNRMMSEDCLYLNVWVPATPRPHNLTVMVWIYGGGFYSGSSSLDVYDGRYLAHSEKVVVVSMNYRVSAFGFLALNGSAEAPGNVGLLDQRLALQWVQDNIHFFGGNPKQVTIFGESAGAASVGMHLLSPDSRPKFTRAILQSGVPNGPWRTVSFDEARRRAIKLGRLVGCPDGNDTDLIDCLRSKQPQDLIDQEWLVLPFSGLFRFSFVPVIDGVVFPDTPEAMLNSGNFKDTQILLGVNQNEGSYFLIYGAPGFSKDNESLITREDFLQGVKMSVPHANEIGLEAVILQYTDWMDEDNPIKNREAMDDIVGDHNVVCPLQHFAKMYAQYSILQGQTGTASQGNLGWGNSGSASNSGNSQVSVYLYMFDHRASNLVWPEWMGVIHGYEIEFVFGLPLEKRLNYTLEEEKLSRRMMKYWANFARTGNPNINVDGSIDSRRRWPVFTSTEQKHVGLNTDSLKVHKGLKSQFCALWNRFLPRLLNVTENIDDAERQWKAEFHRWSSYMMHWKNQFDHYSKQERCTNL
T2 sequence (P22303 32-614): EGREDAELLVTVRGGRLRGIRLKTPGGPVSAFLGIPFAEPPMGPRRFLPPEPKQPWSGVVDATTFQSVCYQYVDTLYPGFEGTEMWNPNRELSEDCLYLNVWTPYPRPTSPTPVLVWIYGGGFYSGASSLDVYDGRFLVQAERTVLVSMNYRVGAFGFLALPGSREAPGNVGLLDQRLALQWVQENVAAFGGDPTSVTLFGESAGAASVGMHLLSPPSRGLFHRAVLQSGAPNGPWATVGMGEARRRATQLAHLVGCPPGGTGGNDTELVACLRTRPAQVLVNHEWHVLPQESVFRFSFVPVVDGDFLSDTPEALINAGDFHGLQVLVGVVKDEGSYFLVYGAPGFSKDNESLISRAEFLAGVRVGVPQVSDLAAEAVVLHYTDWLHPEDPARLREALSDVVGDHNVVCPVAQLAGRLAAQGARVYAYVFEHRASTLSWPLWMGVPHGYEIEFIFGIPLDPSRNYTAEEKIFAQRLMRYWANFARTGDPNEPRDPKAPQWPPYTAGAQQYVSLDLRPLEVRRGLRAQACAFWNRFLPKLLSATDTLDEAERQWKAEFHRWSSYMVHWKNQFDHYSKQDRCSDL

SMILES	IC50 [1, 7] [µM]	IC50 [2, 8] [µM]	Ki [3] [µM]	IC50 [3] [µM]	Ki [1] [µM]	change of concentration in oven-dried capsules versus capsules stored at -20 °C [4]	Ki [2] [µM]	other results
COc1cc2c3c(c1O)-c1c(cccc1OC)C[C@@H]3[N+](C)(C)CC2 [Compound 7, N-methylisothebainium]	> 342	> 342	2.2	7.1 ± 2.7				selectivity for BChE [3]: good selectivity for BChE
COc1cc(C[C@H]2c3cc(O)c(OC)cc3CC[N+]2(C)C)ccc1O [Compound 8, N-methylorientaline]	> 342	> 342		342 ± 3				
COc1cc2c3c(c1O)-c1c(cccc1OC)C[C@@H]3N(C)CC2 [Compound 6, isothebaine]	260 ± 1		0.6	2.8 ± 3	68			IC50 [2]: > 342 µM; selectivity for BChE [3]: good selectivity for BChE
COc1cc2c(cc1O)[C@H](Cc1ccc(OC)c(OC)c1)[N+](C)(C)CC2 [Compound 9, N-methylcodamine]	> 342	> 342		221 ± 1				
COc1cc2c(c3c1OCOC3)C[C@H]1c3c(cc4c(c3OC)OCO4)CC[N+]1=C2.O=C([O-])C(F)(F)F [Compound 2, 7,8-Didehydroorientalidine TFA salt]	3.4 ± 4.7	18.9 ± 1.8	47	98.5 ± 0.6	1	minor decrease in concentration	6.3	
O=[N+]([O-])CCc1ccc(O[C@@H]2O[C@H](CO[C@@H]3OC[C@@H](O)[C@H](O)[C@H]3O)[C@@H](O)[C@H](O)[C@H]2O)cc1 [Compound 11, thalictricoside]	> 342	> 342		> 342				
COc1cc2c(c(CO)c1OC)C[C@H]1c3c(cc4c(c3OC)OCO4)CC[N+]1=C2.O=C([O-])C(F)(F)F [Compound 1, 7,8-Didehydromecambridine TFA salt]	10.3 ± 1.1	66.6 ± 2.4	58.5	100 ± 5	7	minor decrease in concentration	31	oxidation of dried sample on storage ([5]; TFA salt, 0.7 mg, uncapped glass vial, room temperature, approximately 8 weeks): no oxidation to 3; lower activity against AChEs when compared to 2 [1, 9]: approximately 3 fold; lower inhibition constants when compared to 2 [1, 9]: ~6 fold
COc1cc2c(c3c1OCOC3)C[C@H]1c3c(cc4c(c3OC)OCO4)CCN1C2 [Compound 4, orientalidine]	5 ± 1	19.9 ± 1.1	35.5	104 ± 4	2		13.7	oxidation on standing in an NMR tube ([5]; 1:1 mixture of 4 and 5 (fraction C.12), four months): complete oxidation of 4 to 5
COc1cc2c[n+]3c(cc2c(CO)c1OC)-c1c(cc2c(c1OC)OCO2)CC3 [Compound 3, alborine]	6.8 ± 4.5	20 ± 0.9	43.7	63.1 ± 0.5	3.6	approximately doubling	13.2	
COC1=C[C@]23CCN(C)[C@H](Cc4ccc(OC)c(O)c42)C3=CC1=O [Compound 10, salutaridine]								IC50 [1]: > 342 µM; IC50 [2]: > 342 µM
COc1cc2c[n+]3c(cc2c2c1OCOC2)-c1c(cc2c(c1OC)OCO2)CC3 [Compound 5, 7,8,13,14-dehydroorientalidine]						below the level of detection		
C1=[N+]2CCc3cc4c(cc3C2Cc2ccc3c(c21)OCO3)OCO4 (stereo not shown) [13,14-dihydrocoptisine]								oxidation after oven-drying of plant material [6]: complete oxidation
